Results from patent US9416123B2, “Kinase modulators for the treatment of cancer” (Synovo GmbH, priority 2011, dated 2016).

Tests used:
[1] = molecular target: B-Raf V600E (Homo sapiens (Human), UniProt P15056, V600E); assay: Kinase assay (33P FlashPlate) B-Raf V600E; settings: read-out: IC50 B-Raf V600E (n = 1); Table 1, n = 1
Description: (§1) FlashPlates from Perkin Elmer (Boston, Mass., USA) with a 50 μl reaction volume are used. The reaction cocktail was pipetted in 4 steps in the following order: 15 μl of ATP solution (in H2O), 20 μl of assay buffer (see below), 5 μl of test sample in 10% DMSO, 10 μl of enzyme/substrate mixture (in H2O). […] Certain assays also contained 1 mM CaCl2, 4 mM EDTA, 5 μg/ml Phosphatidylserine and 1 μg/ml 1.2-Dioleyl-glycerol. The MYLK2, CAMK1D, CAMK2A, CAMK2B, CAMK2D, CAMK4, CAMKK2, DAPK2 and EEF2K assays additionally contained 1 μg/ml Calmodulin and 0.5 mM CaCl2. The PRKG1 and PRKG2 assays additionally contained 1 μM cGMP. Recombinant Protein Kinases: All protein kinases were expressed in Sf9 insect cells or in E. coli as recombinant GST-fusion proteins or His-tagged proteins. All kinases were produced from human cDNAs, except JAK2, for which the mouse cDNA was used. […] The purity of the protein kinases was examined by SDS-PAGE/coomassie staining. The identity of the protein kinases was checked by mass spectroscopy. Assays were made under license from Chemicon International Inc. for JAK2. […] The reaction was stopped with 50 μl of 2% (v/v) H3PO4, plates were aspirated and washed two times with 200 μl 0.9% (w/v) NaCl. All assays were performed with a BeckmanCoulter Biomek 2000/SL robotic system.

[2] = molecular target: Src (Homo sapiens (Human), UniProt P12931); assay: Kinase assay (33P FlashPlate) Src; settings: read-out: IC50 Src (n = 1); Table 1, n = 1
Description: as §1

[3] = molecular target: VEGFR-2 (Homo sapiens (Human), UniProt P35968); assay: Kinase assay (33P FlashPlate) VEGFR-2; settings: read-out: IC50 VEGFR-2 (n = 1); Table 1, n = 1
VEGFR-2, sequence (P35968 20-1356): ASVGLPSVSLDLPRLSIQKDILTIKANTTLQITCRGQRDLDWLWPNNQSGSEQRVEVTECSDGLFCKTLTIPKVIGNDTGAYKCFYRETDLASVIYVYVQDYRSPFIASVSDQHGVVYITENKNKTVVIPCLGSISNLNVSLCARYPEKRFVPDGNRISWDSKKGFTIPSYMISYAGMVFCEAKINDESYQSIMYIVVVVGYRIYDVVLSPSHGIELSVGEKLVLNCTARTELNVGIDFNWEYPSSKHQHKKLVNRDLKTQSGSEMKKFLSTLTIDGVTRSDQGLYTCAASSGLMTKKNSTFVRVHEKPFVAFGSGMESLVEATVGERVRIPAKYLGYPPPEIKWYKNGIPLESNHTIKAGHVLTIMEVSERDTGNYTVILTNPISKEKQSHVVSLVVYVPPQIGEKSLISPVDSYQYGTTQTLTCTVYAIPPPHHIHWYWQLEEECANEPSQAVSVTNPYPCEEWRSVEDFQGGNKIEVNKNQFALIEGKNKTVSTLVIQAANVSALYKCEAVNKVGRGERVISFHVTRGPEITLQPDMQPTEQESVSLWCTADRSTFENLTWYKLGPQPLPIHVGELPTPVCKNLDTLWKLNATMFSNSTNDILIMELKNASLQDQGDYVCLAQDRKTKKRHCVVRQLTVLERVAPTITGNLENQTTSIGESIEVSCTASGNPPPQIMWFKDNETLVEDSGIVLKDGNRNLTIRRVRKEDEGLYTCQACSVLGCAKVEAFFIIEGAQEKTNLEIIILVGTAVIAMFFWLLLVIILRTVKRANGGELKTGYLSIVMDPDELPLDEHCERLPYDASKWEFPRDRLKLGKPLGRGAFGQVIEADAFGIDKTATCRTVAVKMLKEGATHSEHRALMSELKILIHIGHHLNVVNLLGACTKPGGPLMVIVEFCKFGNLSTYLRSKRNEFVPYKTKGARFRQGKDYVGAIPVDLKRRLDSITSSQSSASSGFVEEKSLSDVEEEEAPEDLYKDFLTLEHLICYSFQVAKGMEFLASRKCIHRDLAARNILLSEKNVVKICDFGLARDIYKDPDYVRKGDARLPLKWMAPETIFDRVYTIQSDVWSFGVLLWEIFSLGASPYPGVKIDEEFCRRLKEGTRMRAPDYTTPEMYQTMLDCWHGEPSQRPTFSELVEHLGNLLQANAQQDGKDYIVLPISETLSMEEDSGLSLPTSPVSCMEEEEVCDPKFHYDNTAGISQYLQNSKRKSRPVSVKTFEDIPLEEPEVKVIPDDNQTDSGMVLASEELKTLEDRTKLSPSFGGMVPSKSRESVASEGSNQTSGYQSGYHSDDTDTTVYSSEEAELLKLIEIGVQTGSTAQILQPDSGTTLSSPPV
Description: as §1

[4] = molecular target: RIPK2 (Homo sapiens (Human), UniProt O43353); assay: Kinase assay (33P FlashPlate) RIPK2; format: biochemical; settings: Table 3
RIPK2, sequence (O43353 whole entry): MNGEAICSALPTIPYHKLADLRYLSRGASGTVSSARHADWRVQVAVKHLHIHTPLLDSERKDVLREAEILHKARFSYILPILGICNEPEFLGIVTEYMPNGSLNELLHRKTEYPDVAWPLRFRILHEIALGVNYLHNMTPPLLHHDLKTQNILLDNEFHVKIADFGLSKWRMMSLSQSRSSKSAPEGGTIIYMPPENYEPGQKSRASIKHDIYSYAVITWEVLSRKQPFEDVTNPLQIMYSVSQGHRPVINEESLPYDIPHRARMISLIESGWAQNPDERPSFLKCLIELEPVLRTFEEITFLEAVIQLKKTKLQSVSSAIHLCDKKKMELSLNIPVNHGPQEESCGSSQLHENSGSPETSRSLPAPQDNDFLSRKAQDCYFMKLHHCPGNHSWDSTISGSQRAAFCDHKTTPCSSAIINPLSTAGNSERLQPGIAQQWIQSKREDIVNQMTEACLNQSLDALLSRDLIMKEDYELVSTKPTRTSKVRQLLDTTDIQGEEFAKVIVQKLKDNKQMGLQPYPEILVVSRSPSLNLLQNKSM

B-Raf V600E, sequence (P15056 whole entry V600E): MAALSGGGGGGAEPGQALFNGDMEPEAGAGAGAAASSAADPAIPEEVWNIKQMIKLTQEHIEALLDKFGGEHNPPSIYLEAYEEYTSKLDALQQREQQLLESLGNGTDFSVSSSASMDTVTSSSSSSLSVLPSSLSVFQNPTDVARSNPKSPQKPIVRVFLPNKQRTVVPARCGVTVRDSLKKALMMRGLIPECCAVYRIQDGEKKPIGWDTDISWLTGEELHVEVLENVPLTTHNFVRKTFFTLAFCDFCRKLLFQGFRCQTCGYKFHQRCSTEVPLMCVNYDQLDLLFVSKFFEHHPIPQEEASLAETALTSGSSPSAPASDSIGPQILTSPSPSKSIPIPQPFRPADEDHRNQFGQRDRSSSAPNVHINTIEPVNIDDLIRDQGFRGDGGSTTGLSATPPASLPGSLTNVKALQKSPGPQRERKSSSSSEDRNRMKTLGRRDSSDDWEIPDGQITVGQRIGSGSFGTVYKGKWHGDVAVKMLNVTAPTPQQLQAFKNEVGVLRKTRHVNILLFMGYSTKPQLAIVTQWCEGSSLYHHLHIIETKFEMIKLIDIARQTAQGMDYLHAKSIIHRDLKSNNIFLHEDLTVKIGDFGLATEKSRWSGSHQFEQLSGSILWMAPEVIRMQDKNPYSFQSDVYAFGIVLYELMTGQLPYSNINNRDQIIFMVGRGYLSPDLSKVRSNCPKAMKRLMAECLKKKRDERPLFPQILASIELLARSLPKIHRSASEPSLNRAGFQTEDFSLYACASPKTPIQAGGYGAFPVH
Src, sequence (P12931 whole entry, looked up): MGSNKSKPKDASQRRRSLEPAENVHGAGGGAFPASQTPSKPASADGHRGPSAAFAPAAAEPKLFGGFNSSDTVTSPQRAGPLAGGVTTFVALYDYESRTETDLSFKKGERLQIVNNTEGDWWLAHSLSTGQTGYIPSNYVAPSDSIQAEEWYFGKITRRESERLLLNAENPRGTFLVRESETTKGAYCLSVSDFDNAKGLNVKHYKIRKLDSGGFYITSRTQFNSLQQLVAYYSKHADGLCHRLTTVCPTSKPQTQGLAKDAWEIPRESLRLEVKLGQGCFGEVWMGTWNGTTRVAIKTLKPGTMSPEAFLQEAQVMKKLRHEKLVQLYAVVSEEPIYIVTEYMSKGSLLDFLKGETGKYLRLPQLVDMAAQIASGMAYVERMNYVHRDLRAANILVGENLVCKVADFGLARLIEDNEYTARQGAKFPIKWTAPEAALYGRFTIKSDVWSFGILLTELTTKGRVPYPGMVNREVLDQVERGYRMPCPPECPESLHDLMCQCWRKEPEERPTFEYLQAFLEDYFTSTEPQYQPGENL

SMILES | IC50 [1] | IC50 [2] | IC50 [3] | melting point | IC50 [4]
N#Cc1ccc(-n2nc(-c3ccncc3)c(-c3ccc(F)cc3)c2N)cc1 [Compound 11, 4-(5-Amino-4-(4-fluorophenyl)-3-(pyridine-4-yl)-1H-pyrazol-1-yl)benzonitrile] | 1.7 µM | > 100 µM | 1.3 µM | – | –
NC(=O)c1c(-c2ccncc2)nn(-c2c(Cl)cc(Cl)cc2Cl)c1N [Compound 14, 5-Amino-3-(pyridin-4-yl)-1-(2,4,6-trichlorophenyl)-1H-pyrazole-4-carboxamide] | > 100 µM | 6.4 µM | 31 µM | – | –
Nc1c(-c2ccc(F)cc2)c(-c2ccncc2)nn1-c1ccccc1 [Compound 5, 4-(4-Fluorophenyl)-1-phenyl-3-(pyridine-4-yl)-1H-pyrazol-5-amine] | 0.9 µM | 52 µM | 2.4 µM | – | –
Nc1c(C(=O)O)c(-c2ccncc2)nn1-c1c(Cl)cc(Cl)cc1Cl [Compound 16, 5-Amino-3-(pyridine-4-yl)-1-(2,4,6-trichlorophenyl)-1H-pyrazole-4-carboxylic acid] | > 100 µM | 55 µM | 43 µM | 208 °C | –
CCOC(=O)c1c(-c2ccncc2)nn(-c2c(Cl)cc(Cl)cc2Cl)c1N [Compound 15, Ethyl 5-amino-3-(pyridin-4-yl)-1-(2,4,6-trichlorophenyl)-1H-pyrazole-4-carboxylate] | > 100 µM | > 100 µM | > 100 µM | – | –
COc1ccc(-n2nc(-c3ccncc3)c(-c3ccc(F)cc3)c2N)cc1 [Compound 8] | 0.86 µM | 23 µM | 1.9 µM | 200 °C | –
NC(=O)c1c(-c2ccncc2)nn(-c2ccccc2)c1N [Compound 18, 5-Amino-1-phenyl-3-(pyridine-4-yl)-1H-pyrazole-4-carboxamide] | 64 µM | 19 µM | 48 µM | – | –
Nc1cc(-c2ccncc2)nn1-c1c(Cl)cc(Cl)cc1Cl [Compound 19, 3-(Pyridin-4-yl)-1-(2,4,6-trichlorophenyl)-1H-pyrazol-5-amine] | > 100 µM | > 100 µM | 87 µM | – | –
Clc1cc(Cl)c(N/N=C/c2ccncc2)c(Cl)c1 [Compound 3a] | 2.5 µM | 2 µM | 0.21 µM | – | –
Nc1c(-c2ccc(F)cc2)c(-c2ccncc2)nn1-c1c(Cl)cc(Cl)cc1Cl [Compound 6] | – | – | – | – | 0.041 µM
Fc1ccc(-c2cn(-c3ccc(C(F)(F)F)cc3)nc2-c2ccncc2)cc1 [Compound 20] | 2.7 µM | 12 µM | 27 µM | – | –
